# Laboratory results from PMC4234510, “Plasmodium falciparum UvrD activities are downregulated by DNA-interacting compounds and its dsRNA inhibits malaria parasite growth” (BMC Biochemistry, 2014).
# Where two headings read alike, the source gives them in different places. Starred links: 1 amine or outer side, 2 acyl side, 3 side chain; linkers in the order of their positions; H or OH if unused. Positions of bridges follow the written chain, without caps; N, C: chain ends. Non-standard residues stand in square brackets, D forms with d. Residues, ends and D or L forms follow the SMILES beside them. Chains are numbered I, II in the order given. Actinocin(9to1) = Cc1c2oc3c(C)ccc(C(=O)[*:1])c3nc-2c(C(=O)[*:2])c(N)c1=O; NMeV = CN[C@H](C(=O)O)C(C)C; Sar = CNCC(=O)O
# Experiments:
# [1] = test system: PfUDN; test: DNA helicase (unwinding) assay of PfUDN; format: biochemical, Plasmodium falciparum; settings: for effect on DNA unwinding (helicase) activity of PfUDN: compound 20 μM, partial duplex substrate, Figure 3; for effect on helicase activity of PfUDN at lower concentration: upto 5 μM concentration tested (data not shown); for IC50: inhibitor 0.5-5.0 μM, unit printed in text b27, not in table or picture labels, read-out: IC50, inhibition of helicase (DNA unwinding) activity of PfUDN
# Description: The specially designed partial duplex substrate consisted of a ^32P-labelled 47-mer DNA oligodeoxynucleotide annealed to M13mp19 phage ssDNA. This oligodeoxynucleotide of the nucleotide sequence 5'- (T)15[…](T)15-3' contains 15 base-pairs of non-complementary region (T)15 at both the 5’ and 3’ ends. Oligodeoxynucleotide was labeled at 5′-end with T4 polynucleotide kinase (PNK) (5U) (New England Biolabs) and 1.85 MBq of [γ-^32P] ATP (specific activity 222 TBq/mmol) at 37°C for one hour and then annealed using standard annealing buffer (20 mM Tris-HCl, pH 7.5, 10 mM MgCl2, 100 mM NaCl, 1 mM DTT) with 0.5 μg of single-stranded circular M13mp19 (+) phage DNA by heating at 95°C for 1 min and then transferring immediately to 65°C for 2 min and then slow cooling to room temperature. Using gel filtration through a Sepharose 4B column (Pharmacia, Sweden) the non-hybridized oligodeoxynucleotide was removed. The reaction volume of 10 μl containing the ^32P-labeled helicase substrate (1000 cpm/10 μl) in appropriate buffer (20 mMTris-HCl, pH 8.0, 8 mM DTT, 1.0 mM MgCl2, 20 mMKCl and 16 μg/ml BSA) and PfUDN was incubated at 37°C for 60 min. The substrate and products were separated by electrophoresis on a nondenaturing 12% PAGE and the gel was exposed to hyper film for autoradiography or scanned on phosphoimager. In order to study the effect of DNA-interacting compounds on helicase activity, different compounds were added to the helicase reaction mixture prior to the addition of the PfUDN helicase. All the experiments were performed in duplicate and quantitation of both the substrate and unwound DNA bands was done using AlphaImager-EP/Image-J software ( http://rsbweb.nih.gov/ij/). Quantification data was used to calculate the standard deviation using Microsoft Excel 2010 and mean value was used to prepare the graph.
# [2] = test system: PfUDN; test: ssDNA-dependent ATPase assay of PfUDN; format: biochemical, Plasmodium falciparum; settings: for effect on ssDNA dependent ATPase activity of PfUDN: compound 20 μM, PfUDN 100 nM, reaction mixture (DNA) preincubated 15 min with compound, Figure 1A; for IC50: inhibitor 0.2-5.0 μM (ciprofloxacin 0.5-30 μM), read-out: IC50, inhibition of ssDNA-dependent ATPase activity of PfUDN
# Description: Standard protocol of ATPase assay was followed as described in the previous report. The hydrolysis of ATP catalyzed by PfUDN was assayed by measuring the formation of Pi from [γ-^32P] ATP. The reaction mixture of 10 μl contained [γ-^32P] ATP (specific activity 222 TBq.mmol^-1) and cold ATP (1 mM), ATPase buffer (20 mM Tris-HCl, pH 8.0, 8 mM DTT, 1.0 mM MgCl2, 20 mM KCl and 16 μg/ml BSA), purified PfUDN and 50 ng or 100 ng of M13 mp19 ssDNA. The reaction mixtures were incubated at 37°C for 60 min. This was followed by thin layer chromatography (TLC), and the quantitation was done using Alpha Imager-EP/Image-J software ( http://rsbweb.nih.gov/ij/). In order to study the effect of various compounds on ssDNA-dependent ATPase activity, different compounds were added into the reaction mixture prior to the addition of the PfUDN. In another set of experiment, PfUDN was pre-incubated (15 min) with these compounds in order to obtain the insight of inhibitory mechanism. All the experiments were performed at least two times and quantification data was used to calculate the standard deviation using Microsoft Excel 2010 and mean value was used to prepare the graph.
# [3] = test system: malaria parasite; settings: cited from earlier work
# [4] = test system: PfDH60; settings: Table 2; no unit and no reference given; read-out: inhibitory potential for helicase activity, PfDH60; cited from earlier work
# [5] = test system: PfH45; settings: Table 2; no unit and no reference given; read-out: inhibitory potential for helicase activity, PfH45; cited from earlier work
# [6] = test system: PfH45; settings: comparison column of Table 1; no unit and no reference given; read-out: inhibitory potential for ATPase activity, PfH45; cited from earlier work
# [7] = test system: PfDH60; settings: comparison column of Table 1; no unit and no reference given; read-out: inhibitory potential for ATPase activity, PfDH60; cited from earlier work
# [8] = test system: PfD66/PfDDX19; settings: Table 2; no unit and no reference given; read-out: inhibitory potential for helicase activity, PfD66/PfDDX19; cited from earlier work
# [9] = test system: PfD66/PfDDX19; settings: comparison column of Table 1; no unit and no reference given; read-out: inhibitory potential for ATPase activity, PfD66/PfDDX19; cited from earlier work
# [10] = unit printed in text b20, not in table or picture labels
smiles,measurement,setting,value
O=P1(N(CCCl)CCCl)NCCCO1 (centres unmarked) [cyclophosphamide],effect on DNA unwinding (helicase) activity of PfUDN,[1],not able to considerably inhibit
same,effect on ssDNA dependent ATPase activity of PfUDN,[2],not able to considerably inhibit
N.N.[Cl][Pt][Cl] [cisplatin],effect on DNA unwinding (helicase) activity of PfUDN,[1],not able to considerably inhibit
same,effect on ssDNA dependent ATPase activity of PfUDN,[2],not able to considerably inhibit
COc1cc([C@@H]2c3cc4c(cc3[C@@H](O[C@@H]3O[C@@H]5CO[C@@H](C)O[C@H]5[C@H](O)[C@H]3O)[C@H]3COC(=O)[C@H]23)OCO4)cc(OC)c1O [etoposide],effect on DNA unwinding (helicase) activity of PfUDN,[1],blocks the helicase activity appreciably
same,effect on helicase activity of PfUDN at lower concentration,[1],failed to show appreciable inhibition
same,effect on ssDNA dependent ATPase activity of PfUDN,[2],not able to considerably inhibit
"O=C(O)c1cn(C2CC2)c2cc(N3CCNCC3)c(F)cc2c1=O [Ciprofloxacin, ciprofloxacin]",effect on DNA unwinding (helicase) activity of PfUDN,[1],inhibit the DNA unwinding activity of PfUDN effectively
same,effect on helicase activity of PfUDN at lower concentration,[1],failed to show appreciable inhibition
same,inhibition of malaria parasite growth,[3],found effective
same,effect on ssDNA dependent ATPase activity of PfUDN,[2],weakly inhibit
same,IC50,"[2]; unit printed in text b20, not in table or picture labels, listed as ciprofloxacin",~10 µM
same,IC50,[2]; [10],9.9 µM
"Cc1c2oc3c(C)ccc(C(=O)N[C@@H]4C(=O)N[C@H](C(C)C)C(=O)N5CCC[C@H]5C(=O)N(C)CC(=O)N(C)[C@@H](C(C)C)C(=O)O[C@@H]4C)c3nc-2c(C(=O)N[C@@H]2C(=O)N[C@H](C(C)C)C(=O)N3CCC[C@H]3C(=O)N(C)CC(=O)N(C)[C@@H](C(C)C)C(=O)O[C@@H]2C)c(N)c1=O [actinomycin] (I: T[dV]P[Sar][NMeV] / II: T[dV]P[Sar][NMeV]; ester I:1-I:C, II:1-II:C; linker I:N-II:N via Actinocin(9to1))",effect on DNA unwinding (helicase) activity of PfUDN,[1],not able to considerably inhibit
same,effect on ssDNA dependent ATPase activity of PfUDN,[2],not able to considerably inhibit
"COc1cccc2c1C(=O)c1c(O)c3c(c(O)c1C2=O)C[C@@](O)(C(C)=O)C[C@@H]3O[C@H]1C[C@H](N)[C@H](O)[C@H](C)O1 [Daunorubicin, daunorubicin]",effect on DNA unwinding (helicase) activity of PfUDN,[1],inhibit the DNA unwinding activity of PfUDN effectively
same,IC50,[1]; listed as daunorubicin,~3 µM
same,IC50,[1],3 µM
same,IC50,[4],0.3 µM
same,IC50,[5],1.5 µM
same,effect on ssDNA dependent ATPase activity of PfUDN,[2],top four inhibitors
same,IC50,[2],~3 µM
same,IC50,[6],5 µM
"CC[n+]1c(-c2ccccc2)c2cc(N)ccc2c2ccc(N)cc21 [Ethidium bromide, ethidium bromide]",effect on DNA unwinding (helicase) activity of PfUDN,[1],inhibit the DNA unwinding activity of PfUDN effectively
same,IC50,[1],4.8 µM
same,IC50,[7],2.5 µM
same,IC50,[4],1.5 µM
same,IC50,[8],1 µM
same,IC50,[5],1 µM
same,IC50,[9],1.5 µM
same,effect on ssDNA dependent ATPase activity of PfUDN,[2],top four inhibitors
same,IC50,[6],1.5 µM
O=c1c(-c2ccc(O)cc2)coc2cc(O)cc(O)c12 [genistein],effect on DNA unwinding (helicase) activity of PfUDN,[1],not able to considerably inhibit
same,effect on ssDNA dependent ATPase activity of PfUDN,[2],not able to considerably inhibit
CO[C@@H]1[C@@H](OC(N)=O)[C@@H](O)[C@H](Oc2ccc3c(O)c(NC(=O)c4ccc(O)c(CC=C(C)C)c4)c(=O)oc3c2C)OC1(C)C [novobiocin],effect on DNA unwinding (helicase) activity of PfUDN,[1],not able to considerably inhibit
same,effect on ssDNA dependent ATPase activity of PfUDN,[2],not able to considerably inhibit
O=c1c(O)c(-c2ccc(O)cc2O)oc2cc(O)cc(O)c12 [morin],effect on DNA unwinding (helicase) activity of PfUDN,[1],not able to considerably inhibit
same,effect on ssDNA dependent ATPase activity of PfUDN,[2],weakly inhibit
N=C(N)c1ccc(-c2cc3ccc(C(=N)N)cc3[nH]2)cc1 [DAPI],effect on ssDNA dependent ATPase activity of PfUDN,[2],inhibit
"COC(=O)[C@@H]1c2cc3c(c(O)c2[C@@H](O[C@@H]2O[C@@H](C)[C@H](OC)[C@@](C)(OC)[C@H]2OC)C[C@]1(C)O)C(=O)c1c(O)cc2c(c1C3=O)O[C@@H]1O[C@@]2(C)[C@H](O)[C@@H](N(C)C)[C@@H]1O [Nogalamycin, nogalamycin]",effect on DNA unwinding (helicase) activity of PfUDN,[1],inhibit the DNA unwinding activity of PfUDN effectively
same,IC50,[1],3.5 µM
same,IC50,[7],0.5 µM
same,IC50,[4],2 µM
same,IC50,[8],5 µM
same,IC50,[5],0.5 µM
same,effect on ssDNA dependent ATPase activity of PfUDN,[2],top four inhibitors
same,IC50,[2]; [10],3.3 µM
same,IC50,[6],0.8 µM
"Cn1cc(NC(=O)c2cc(NC(=O)CN=C(N)N)cn2C)cc1C(=O)NCCC(=N)N [Netropsin, netropsin]",effect on DNA unwinding (helicase) activity of PfUDN,[1],inhibit the DNA unwinding activity of PfUDN effectively
same,IC50,[1],4.7 µM
same,IC50,[4],1.2 µM
same,IC50,[8],0.5 µM
same,IC50,[5],0.5 µM
same,IC50,[9],1 µM
same,effect on ssDNA dependent ATPase activity of PfUDN,[2],top four inhibitors
same,IC50,[2]; [10],3.1 µM
same,IC50,[6],1.5 µM
CC[C@@]1(O)C(=O)OCc2c1cc1n(c2=O)Cc2cc3ccccc3nc2-1 [camptothecin],effect on DNA unwinding (helicase) activity of PfUDN,[1],not able to considerably inhibit
same,effect on ssDNA dependent ATPase activity of PfUDN,[2],not able to considerably inhibit
